Values of other authors, collected in patent US20230321091A1, “SUBSTITUTED PYRIDAZINONES FOR USE IN THE TREATMENT OF NEUROMUSCULAR DISEASES” (Edgewise Therapeutics, Inc., priority 2020, published 2023).

Test system: embryos from zebrafish model of DMD

Cc1ccc(S(=O)(=O)NCc2ccccc2)cc1 [BTS, N-benzyl-p-tolyl-sulfonamide]
protection of muscles from pathological muscle derangement: protect muscles from pathological muscle derangement
